{"source": "patent US20110263699A1", "about": "(priority 2002, published 2011)", "key": {"[1]": {"biological_target": "5HT uptake (Homo sapiens, UniProt P31645)", "sequence (P31645 whole entry)": "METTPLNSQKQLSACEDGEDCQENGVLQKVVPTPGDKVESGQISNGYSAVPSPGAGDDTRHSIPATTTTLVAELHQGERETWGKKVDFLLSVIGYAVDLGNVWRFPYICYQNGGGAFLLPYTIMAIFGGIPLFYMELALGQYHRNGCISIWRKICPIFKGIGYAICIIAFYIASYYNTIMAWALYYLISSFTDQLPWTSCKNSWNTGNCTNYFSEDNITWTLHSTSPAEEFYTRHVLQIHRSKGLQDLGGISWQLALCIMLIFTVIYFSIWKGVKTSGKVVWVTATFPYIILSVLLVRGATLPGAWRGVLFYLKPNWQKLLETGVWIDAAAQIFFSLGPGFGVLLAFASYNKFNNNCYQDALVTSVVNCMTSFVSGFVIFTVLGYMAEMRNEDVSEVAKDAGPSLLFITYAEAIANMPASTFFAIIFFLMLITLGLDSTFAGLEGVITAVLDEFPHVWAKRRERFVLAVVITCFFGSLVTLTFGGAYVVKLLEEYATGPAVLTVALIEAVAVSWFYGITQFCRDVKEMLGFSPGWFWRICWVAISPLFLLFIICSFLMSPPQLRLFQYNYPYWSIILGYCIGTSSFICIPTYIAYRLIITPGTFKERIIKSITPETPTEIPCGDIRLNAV", "assay": "biochemical", "settings": "read-out: 5HT uptake inhibition Ki values"}, "[2]": {"tested_on": "duration of immobility", "assay": "Tail suspension test on mice", "format": "in vivo", "description": "Rodents left hanging by the tail rapidly become immobile. Antidepressants reduce the duration of the immobility, while tranquilizers prolong the duration of the immobility. […] Several mice were investigated in parallel and the duration of immobility determined. […] 10-20 mice were investigated per group. […] In this behavioural model, antidepressants, as also in other behavioural models, lead to a shortening of the immobility phase, while opioids such as morphine prolong the immobility phase."}, "[3]": {"biological_target": "μ-Opioid receptor (Rattus norvegicus, UniProt P33535)", "sequence (P33535 whole entry)": "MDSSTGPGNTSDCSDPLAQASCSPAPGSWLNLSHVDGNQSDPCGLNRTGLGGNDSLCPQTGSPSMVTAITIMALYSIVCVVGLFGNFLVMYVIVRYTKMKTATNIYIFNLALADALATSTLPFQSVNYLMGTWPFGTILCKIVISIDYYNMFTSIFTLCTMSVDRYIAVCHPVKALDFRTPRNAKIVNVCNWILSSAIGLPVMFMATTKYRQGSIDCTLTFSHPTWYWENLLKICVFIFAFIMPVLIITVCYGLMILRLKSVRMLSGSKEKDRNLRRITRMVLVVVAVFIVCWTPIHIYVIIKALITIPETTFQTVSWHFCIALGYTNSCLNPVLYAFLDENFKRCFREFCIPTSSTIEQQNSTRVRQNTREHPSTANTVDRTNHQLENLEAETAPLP", "assay": "μ-Opioid receptor binding (rat)"}, "[4]": {"biological_target": "NA uptake (Homo sapiens, UniProt P23975)", "sequence (P23975 whole entry)": "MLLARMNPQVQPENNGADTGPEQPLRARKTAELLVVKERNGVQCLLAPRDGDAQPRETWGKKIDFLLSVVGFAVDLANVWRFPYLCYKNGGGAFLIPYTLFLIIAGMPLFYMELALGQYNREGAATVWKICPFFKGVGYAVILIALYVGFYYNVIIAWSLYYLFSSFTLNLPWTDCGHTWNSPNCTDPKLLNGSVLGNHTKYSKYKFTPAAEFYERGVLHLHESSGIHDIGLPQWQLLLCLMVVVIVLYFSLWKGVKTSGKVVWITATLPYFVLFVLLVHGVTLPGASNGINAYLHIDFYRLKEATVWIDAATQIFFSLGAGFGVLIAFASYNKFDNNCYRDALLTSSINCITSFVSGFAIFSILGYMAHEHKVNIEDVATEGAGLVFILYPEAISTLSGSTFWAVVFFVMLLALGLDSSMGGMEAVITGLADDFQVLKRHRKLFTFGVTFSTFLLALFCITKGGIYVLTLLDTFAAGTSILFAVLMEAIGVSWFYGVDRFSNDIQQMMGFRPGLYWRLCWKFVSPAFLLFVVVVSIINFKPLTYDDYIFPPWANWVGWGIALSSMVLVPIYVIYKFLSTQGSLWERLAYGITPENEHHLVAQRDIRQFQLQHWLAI", "assay": "biochemical", "settings": "read-out: NA uptake inhibition Ki values"}, "[5]": {"biological_target": "T1, μ-Opioid receptor (Homo sapiens, UniProt P35372)", "assay": "μ-Opioid receptor binding (human)"}, "[6]": {"biological_target": "T1, μ-Opioid receptor", "assay": "μ-Opioid receptor binding (species not given)"}, "[7]": {"settings": "4.64 mg/kg i.p., 30 minutes before the test"}}, "note": "Counter-ions that a name gives are not always drawn."}
{"smiles": "CN(C)C[C@@H]1CCCC[C@H]1c1cccc(O)c1.Cl", "note": "[(1R,2R)-3-(2-dimethylaminomethyl-cyclohexyl)-phenol; hydrochloride]", "values": [{"measurement": "Ki", "setting": "[1]", "result": 50, "unit": "nM"}, {"measurement": "Duration of immobility % change compared with the solvent control", "setting": "[2]; [7]", "result": "+6%"}, {"measurement": "Duration of immobility (in words)", "setting": "[2]; after pretreatment with naloxone", "result": "marked decrease in the duration of immobility"}, {"measurement": "Duration of immobility compared with the solvent control (in words)", "setting": "[2]; without naloxone pretreatment", "result": "only a slight change in the duration of immobility"}, {"measurement": "Ki", "setting": "[3]", "result": 38, "unit": "nM"}, {"measurement": "Ki", "setting": "[4]", "result": 160, "unit": "nM"}]}
{"smiles": "CNC[C@@H]1CCCC[C@H]1c1cccc(O)c1", "note": "[(1R,2R)-3-(2-methylaminomethyl-cyclohexyl)-phenol, hydrochloride]", "values": [{"measurement": "Ki", "setting": "[1]", "result": 9410, "unit": "nM"}, {"measurement": "Ki", "setting": "[5]", "result": 910, "unit": "nM"}, {"measurement": "Ki", "setting": "[4]", "result": 560, "unit": "nM"}]}
{"smiles": "CNCCCN1c2ccccc2CCc2ccccc21", "note": "[Desipramine, desipramine]", "values": [{"measurement": "μ-Opioid receptor Ki values", "setting": "[6]", "result": "inactive"}]}
{"smiles": "CNCCC(Oc1ccc(C(F)(F)F)cc1)c1ccccc1", "note": "(stereo not shown) [Fluoxetine, fluoxetine]", "values": [{"measurement": "μ-Opioid receptor Ki values", "setting": "[6]", "result": "inactive"}]}
{"smiles": "CN(C)CCCN1c2ccccc2CCc2ccccc21", "note": "[Imipramine, imipramine]", "values": [{"measurement": "Duration of immobility % change compared with the solvent control", "setting": "[2]; 31.6 mg/kg i.p., 30 minutes before the test", "result": "−61", "unit": "%"}]}
{"smiles": "CN1CC[C@]23c4c5ccc(O)c4O[C@H]2[C@@H](O)C=C[C@H]3[C@H]1C5", "note": "[Morphine, morphine]", "values": [{"measurement": "Duration of immobility % change compared with the solvent control", "setting": "[2]; [7]", "result": "+90%"}, {"measurement": "Duration of immobility % change compared with the solvent control", "setting": "[2]; 10.0 mg/kg i.p., 30 minutes before the test", "result": "+145%"}, {"measurement": "Duration of immobility % change compared with the solvent control", "setting": "[2]; 21.5 mg/kg i.p., 30 minutes before the test", "result": "+169%"}]}
{"smiles": "C=CCN1CC[C@]23c4c5ccc(O)c4O[C@H]2C(=O)CC[C@@]3(O)[C@H]1C5", "note": "[Naloxone, naloxone]", "values": [{"measurement": "Duration of immobility % change compared with the solvent control", "setting": "[2]; 1.0 mg/kg i.v.", "result": "−15", "unit": "%"}]}
